# Assay results taken from US20040014215A1, “Synchronised arabidopsis cell suspensions and uses thereof” (priority 2000, published 2004).
# Key:
# [1] = test system: Arabidopsis cell suspension culture MM1; assay: Scaled-up aphidicolin (4.16 μg/ml, 24 hrs) synchronisation of MM1: LI and MI; format: cell-based, Arabidopsis thaliana
# Experimental: (§1) was analysed following the expression level of known cell cycle regulated genes. Synchronisation was performed as described in Example 2A, with the exception that two 7-day old cultures of the weekly sub-cultured cell suspension (210 ml each) were combined. 40 ml of combined culture was transferred into 200 ml of fresh MSS-medium in each of 10 separate flasks. After incubation for 24 hrs under conditions as described in Example 1, in the presence of 4.16 μg/ml aphidicolin, cells from 5 pooled flasks were washed through a nylon net (mesh size 47 μm) and washed with 2 litre MSS medium and shaken vigorously to remove the aphidicolin. Cells were transferred into a 50 ml plastic tube, washed again with MSS medium and centrifuged at 2500 rpm for 1 min (1075 rcf). Cells were resuspended and combined with the cells from the other 5 flasks similarly washed in a total volume of 300 ml fresh MSS-medium. 30 ml of this cell suspension was then added to 200 ml fresh MSS-medium in each of 10 separate flasks.
# For every time point a 30 ml sample was split into:
# 2) 5 ml for LI and Ml determination as described in Example 2A.
# A MI peak of 9.8% was observed, about 12 hrs after release from the aphidicolin block. Labelling index was also determined and reached a peak of 52%, 3 h after release.
# CDK-a = assay: Northern expression analysis after aphidicolin synchronisation of MM1 (maximum signal = 100%); format: cell-based, Arabidopsis thaliana
# Experimental: as §1
# (§2) 1) 25 ml for Northern blot (transferred into 50 ml plastic tube, centrifuged at 2500 rpm for 1 min, the supernatant discarded, and the cell pellet shock-frozen in liquid nitrogen before storing in −80° C. freezer)
# (§3) Samples were collected at the time point indicated (time of removal of aphidicolin equals time point 0 hrs) and were analysed for expression of the following genes by Northern blot:
# CDK-a (also called Cdc2a/CDK2a: Accession no. ATCDC2AP)
# (§4) For each probe the maximum hybridisation signal obtained was defined as 100%.
# CDK-b1 = assay: as above; format: cell-based, Arabidopsis thaliana
# Experimental: as §1, §2, §3
# CDK-b1 (also called Cdc2b/CDK2b: Accession no. ATCDC2BP)
# as §4
# cell cycle = details: phase of the cell cycle at which cells are arrested; cited from earlier work
# tobacco BY-2 cell line = details: BY-2, aphidicolin block; cited from earlier work
# alfalfa-cell suspension = details: blocked with aphidicolin for 36 h and released; cited from earlier work
# [2] = 0 hrs after aphidicolin removal
# [3] = 2 hrs after aphidicolin removal
# [4] = 4 hrs after aphidicolin removal
# [5] = 6 hrs after aphidicolin removal
# [6] = 8 hrs after aphidicolin removal
# [7] = 10 hrs after aphidicolin removal
# [8] = 12 hrs after aphidicolin removal
# [9] = 14 hrs after aphidicolin removal
# [10] = 16 hrs after aphidicolin removal
# [11] = 18 hrs after aphidicolin removal
# [12] = 20 hrs after aphidicolin removal
# [13] = 22 hrs after aphidicolin removal
# [14] = 24 hrs after aphidicolin removal
# [15] = 26 hrs after aphidicolin removal
# [16] = 28 hrs after aphidicolin removal
# [17] = 30 hrs after aphidicolin removal
structure (smiles),measurement,setting,value
C[C@@]1(CO)[C@H](O)CC[C@@]2(C)[C@H]1CC[C@H]1C[C@@H]3C[C@@]12CC[C@]3(O)CO [aphidicolin],Labelling index peak,[1]; 3 h after release,52%
same,MI peak,[1]; about 12 hrs after release from the aphidicolin block,9.8%
same,CDK-a %,CDK-a; [2],17.71%
same,CDK-a Band intensity,CDK-a; [2],321
same,CDK-a %,CDK-a; [3],37.87%
same,CDK-a Band intensity,CDK-a; [3],687
same,CDK-a %,CDK-a; [4],45.09%
same,CDK-a Band intensity,CDK-a; [4],818
same,CDK-a %,CDK-a; [5],66.22%
same,CDK-a Band intensity,CDK-a; [5],1202
same,CDK-a %,CDK-a; [6],58.06%
same,CDK-a Band intensity,CDK-a; [6],1054
same,CDK-a %,CDK-a; [7],77.44%
same,CDK-a Band intensity,CDK-a; [7],1406
same,CDK-a %,CDK-a; [8],80.20%
same,CDK-a Band intensity,CDK-a; [8],1456
same,CDK-a %,CDK-a; [9],92.43%
same,CDK-a Band intensity,CDK-a; [9],1678
same,CDK-a %,CDK-a; [10],79.03%
same,CDK-a Band intensity,CDK-a; [10],1435
same,CDK-a %,CDK-a; [11],100.0%
same,CDK-a Band intensity,CDK-a; [11],1816
same,CDK-a %,CDK-a; [12],89.25%
same,CDK-a Band intensity,CDK-a; [12],1620
same,CDK-a %,CDK-a; [13],53.55%
same,CDK-a Band intensity,CDK-a; [13],972
same,CDK-a %,CDK-a; [14],34.25%
same,CDK-a Band intensity,CDK-a; [14],621
same,CDK-a %,CDK-a; [15],40.96%
same,CDK-a Band intensity,CDK-a; [15],743
same,CDK-a %,CDK-a; [16],36.32%
same,CDK-a Band intensity,CDK-a; [16],659
same,CDK-a %,CDK-a; [17],29.30%
same,CDK-a Band intensity,CDK-a; [17],532
same,CDK-b1 %,CDK-b1; [2],34.26%
same,CDK-b1 Band intensity,CDK-b1; [2],500
same,CDK-b1 %,CDK-b1; [3],57.86%
same,CDK-b1 Band intensity,CDK-b1; [3],844
same,CDK-b1 %,CDK-b1; [4],69.78%
same,CDK-b1 Band intensity,CDK-b1; [4],1018
same,CDK-b1 %,CDK-b1; [5],74.34%
same,CDK-b1 Band intensity,CDK-b1; [5],1085
same,CDK-b1 %,CDK-b1; [6],79.46%
same,CDK-b1 Band intensity,CDK-b1; [6],1160
same,CDK-b1 %,CDK-b1; [7],96.41%
same,CDK-b1 Band intensity,CDK-b1; [7],1407
same,CDK-b1 %,CDK-b1; [8],99.31%
same,CDK-b1 Band intensity,CDK-b1; [8],1450
same,CDK-b1 %,CDK-b1; [9],100.0%
same,CDK-b1 Band intensity,CDK-b1; [9],1459
same,CDK-b1 %,CDK-b1; [10],73.89%
same,CDK-b1 Band intensity,CDK-b1; [10],1078
same,CDK-b1 %,CDK-b1; [11],51.49%
same,CDK-b1 Band intensity,CDK-b1; [11],751
same,CDK-b1 %,CDK-b1; [12],58.87%
same,CDK-b1 Band intensity,CDK-b1; [12],859
same,CDK-b1 %,CDK-b1; [13],42.07%
same,CDK-b1 Band intensity,CDK-b1; [13],614
same,CDK-b1 %,CDK-b1; [14],30.65%
same,CDK-b1 Band intensity,CDK-b1; [14],447
same,CDK-b1 %,CDK-b1; [15],49.74%
same,CDK-b1 Band intensity,CDK-b1; [15],726
same,CDK-b1 %,CDK-b1; [16],50.87%
same,CDK-b1 Band intensity,CDK-b1; [16],742
same,CDK-b1 %,CDK-b1; [17],57.47%
same,CDK-b1 Band intensity,CDK-b1; [17],839
same,cell cycle arrest,cell cycle,G1/early S
same,mitotic index,tobacco BY-2 cell line,45-50%
same,peak mitotic index,alfalfa-cell suspension,up to 40%
